Assays:
[1] = tested on: cyclin A; assay: Immunoblotting of cyclin A level in T cells; format: cell-based, human; details: PHA plus hydroxyurea block, released; LAC added at release
Protocol: Tonsillar T cells were stimulated with PHA (2 μg/ml) for 40 h in the presence of hydroxyurea (1 mM), and these cells were blocked at the G1/S boundary (G1 block). The synchronization was released by washing out hydroxyurea, and the cells were recultured in medium containing 2 μg/ml PHA in the absence or presence of LAC ([…], added once at the time of the release). The cells were harvested at 6 h and 22 h post the G1/S block. The cell lysates (40 μg/sample) were resolved in 10% SDS-PAGE, and transferred to PVDF membranes. The membranes were hybridized with rabbit-anti-Cyclin E or anticyclin A antisera followed by ^125I-protein A. The Cyclin E level (FIG. 8A) and cyclin A level (FIG. 8B) of representative experiments are shown. Similar results were obtained in a total of three independent experiments.
The G1/S phase synchronized T cells represented activated cells, and prolonged exposure to LAC would cause significant cell death.
Tonsillar T cells were cultured in the presence of 2 μg/ml PHA and 1 mM hydroxyurea for 40 h. The cells thus treated were synchronized at the G1/S phase. […]
(§1) Immunoblotting was employed to evaluate the levels of Cyclin E, cyclin A, p21^Cip1 and p27^Kip1. […] The cleared lysates were quantitated for protein concentrations. […] The signals on the membrane were detected by [^125I]-protein A followed by autoradiography.

[2] = tested on: p21^Cip1; assay: Immunoblotting of p21Cip1 level in T cells; format: cell-based, human; details: PHA; LAC 10 μM added once at the beginning
Protocol: Tonsillar T cells were stimulated with PHA (2 μg/ml) for 16 h, 40 or 64 h in the absence or presence of LAC (10 μM). For the 16 h and 40 h culture, LAC was added once at 0 h. For the 64 h culture, LAC was added once at 40 h. The cell lysates were resolved in 10% SDS-PAGE, and blotted onto PVDF membranes. The membranes were hybridized with rabbit anti-p27^Kip1 antisera (FIG. 9A) or with anti-p21^Cip1 antisera (FIG. 9B) followed by ^125-protein A. The experiments were performed three times, and similar results were obtained. Representative data is shown.
In addition to the cyclin levels, the CDK activities are also controlled by several low molecular weight inhibitors. We have examined in this study the effect of the proteasome on the CDK inhibitors p27^Kip1 (Hall et al., 1995, supra) and p21^Cip1 (el-Deiry et al., 1993, Cell 75:817). […] This is in agreement with previous reports (Hengst et al., 1996, Science 271:1861; Nourse et al., 1994, Nature 372:570). […] The blockage was less obvious when assayed at 40 h, probably because the gradual loss of LAC activity during the 40 h culture. […]
as §1

[3] = tested on: human peripheral blood mononuclear cells; assay: Aggregate formation of PHA-stimulated PBMC; format: cell-based; details: 2 μg/ml PHA plus 10 μM lactacystin; 24 h
Excerpt: (§2) Cell-cell interaction is essential in antigen presentation and in T cell's help to T and B cells. The adhesion molecules are necessary to establish the cell-cell interaction. Blocking the adhesion molecules ICAM-1 and LFA-1 is known to inhibit immune responses and to suppress graft rejection. […] Therefore, inhibition of the proteasome activity will be a useful way to control undesirable immune responses during graft rejection, autoimmune diseases, and inflammation.

[4] = tested on: ICAM-1; assay: ICAM-1 expression on 2C TCR transgenic lymph node T cells (flow cytometry); format: cell-based, mouse; details: Con A plus 10 μM lactacystin; 24 h and 48 h
Protocol: After 24 h and 48 h, the cells were examined for ICAM-1 expression by flow cytometry, using FITC-anti-ICAM-1/1B2-PE. Monoclonal Ab 1B2 recognize a clonotypic determinant on the TCR of the transgenic T cells which are largely CD8 positive (>75%).
as §2

[5] = tested on: mouse peritoneal exudate macrophages; assay: LPS-induced nitric oxide production by macrophages (nitrite, Griess reagent); format: cell-based; details: 2 μg/ml LPS; lactacystin at different concentrations
Protocol: Nitric oxide production by the macrophages was measured according to the […] concentrations in the supernatants.
BALB/c mice were injected i.p. with 3 ml of 3% thioglycollate broth. Three days later, peritoneal exudate macrophages of the mice were harvested and washed at 170 g for 10 min at 4° C. The macrophages were cultured in Teflon vials (2 cm in diameter) at 4×10^6/2 ml with various reagents (LPS, 2 μg/ml; IFNγ, 100 u/ml; LAC, 0.62-5 μM for the nitric oxide assay and 5 μM for the Northern blot assay).
The nitrite concentration in the culture supernatant was measured as a way to indirectly reflect the nitric oxide level following a method described by Ding et al (Ding et al., 1988, J. Immunology 141:2407). Release of reactive nitrogen intermediates and reactive oxygen intermediates form mouse peritoneal macrophages: comparison of activation cytokines and evidence for independent production. Briefly, 100 μl of supernatants collected from 48 h macrophage cultures was incubated with an equal volume of the Griess reagent (1% sulfanimide/0.1% naphthylethylene diamine dihydrochloride/2.5% H3PO4) at room temperature for 10 min in 96-well microtitration plates, the O.D. was measured at 550 nm. Sodium nitrite of various concentrations were used to construct standard curves.

SMILES: CC(=O)N[C@@H](CSC(=O)[C@]1([C@@H](O)C(C)C)NC(=O)[C@H](C)[C@@H]1O)C(=O)O [LAC, lactacystin]
- cyclin A level during the S phase [1]: did not affect the level
- upregulation of p21Cip1 in the G1 phase [2]: strongly suppressed the upregulation
- aggregate formation [3]: effectively block the aggregate formation
- upregulation of ICAM-1 on CD8 positive T cells [4]: effectively block the upregulation of ICAM-1
- LPS-induced NO production [5]: effectively repress

From patent US20020049157A1, “Use of proteasome inhibitors for treating cancer, inflammation, autoimmune disease, graft rejection and septic shock” (priority 1998, published 2002)
